Each compound was assayed against human MDM2 protein (amino acids 2-188) (Homo sapiens (Human), UniProt Q00987) (assay: TR-FRET assay, p53-MDM2 Assay 2 (modified)). Conditions: not given.
Assay type: binding
Description: The inhibition of p53-MDM2 and p53-MDM4 interactions is measured by time resolved fluorescence energy transfer (TR-FRET). Fluorescence energy transfer (or Foerster resonance energy transfer) describes an energy transfer between donor and acceptor fluorescent molecules. For this assay, human MDM2 protein (amino acids 2-188) and human MDM4 protein (amino acids 2-185), tagged with a C-terminal biotin moiety, are used in combination with a Europium labeled streptavidin (Perkin Elmer, Inc., Waltham, Mass., USA) serving as the donor fluorophore. The p53 derived, Cy5 labeled peptide Cy5-[…] (p53 aa18-26) is the energy acceptor. Upon excitation of the donor molecule at 340 nm, binding interaction between MDM2 or MDM4 and the p53 peptide induces energy transfer and enhanced response at the acceptor emission wavelength at 665 nm. […] The ratiometric FRET assay readout is calculated from the raw data of the two distinct fluorescence signals measured in time resolved mode (fluorescence 665 nm/fluorescence 620 nm×1000).
After addition of 1.25 nM MDM2-biotinylated or 2.5 nM MDM4-biotinylated (internal preparations), and 0.625 nM Europium labeled streptavidin (Perkin Elmer), the solution is pre-incubated for 15 minutes at room temperature, then 10 nM Cy5-p53 peptide (internal preparation) is added before an incubation at room temperature for 15 minutes prior to reading the plate. For measurement of samples, a Victor II microplate reader (Perkin Elmer) is used with the following settings: Excitation 340 nm, Emission Donor 620 nm and Emission Acceptor 665 nm. IC50 values are calculated by curve fitting using XLfit. If not specified, reagents are purchased from Sigma-Aldrich Chemie GmBH, Buchs, Switzerland.

human MDM2 protein (amino acids 2-188), sequence (Q00987 2-188): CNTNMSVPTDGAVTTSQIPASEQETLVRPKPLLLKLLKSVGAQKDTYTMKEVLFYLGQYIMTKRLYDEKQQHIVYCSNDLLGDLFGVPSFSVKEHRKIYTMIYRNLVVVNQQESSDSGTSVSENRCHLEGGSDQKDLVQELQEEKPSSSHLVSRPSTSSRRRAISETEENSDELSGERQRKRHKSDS

| IC50 [nM] | Compound |
| --- | --- |
| 0.49 | COc1ncccc1-c1cc2c(n1C(C)C)C(c1ccc(Cl)cc1)N(c1cc(Cl)ccc1C)C2=O (centres unmarked) [Example 12, 5-(5-Chloro-2-methyl-phenyl)-6-(4-chloro-phenyl)-1-isopropyl-2-(2-methoxy-pyridin-3-yl)-5,6-dihydro-1H-pyrrolo[3,4-b]pyrrol-4-one] |

Same assay, conditions: TR-FRET; 0.1 nM MDM2, 0.1 nM Europium labeled streptavidin, Tecan genios Pro reader; read-out: IC50 p53-MDM2 Assay 2

| IC50 [nM] | Compound |
| --- | --- |
| 0.286 | COc1ccc(CO)cc1-c1cc2c(n1C(C)C)C(c1ccc(Cl)cc1C)N(c1cccc(Cl)c1F)C2=O (centres unmarked) [Example 4, 5-(3-Chloro-2-fluoro-phenyl)-6-(4-chloro-2-methyl-phenyl)-2-(5-hydroxymethyl-2-methoxy-phenyl)-1-isopropyl-5,6-dihydro-1H-pyrrolo[3,4-b]pyrrol-4-one] |
| 1.7 | COc1ncccc1-c1cc2c(n1C(C)C)C(c1ccc(Cl)cc1C)N(c1cccc(Cl)c1F)C2=O (centres unmarked) [Example 5, 5-(3-Chloro-2-fluoro-phenyl)-6-(4-chloro-2-methyl-phenyl)-1-isopropyl-2-(2-methoxy-pyridin-3-yl)-5,6-dihydro-1H-pyrrolo[3,4-b]pyrrol-4-one] |
| 0.172 | COc1ccncc1-c1cc2c(n1C(C)C)C(c1ccc(Cl)cc1C)N(c1cccc(Cl)c1F)C2=O (centres unmarked) [Example 6, 5-(3-Chloro-2-fluoro-phenyl)-6-(4-chloro-2-methyl-phenyl)-1-isopropyl-2-(4-methoxy-Pyridin-3-yl)-5,6-dihydro-1H-pyrrolo[3,4-b]pyrrol-4-one] |
| 49 | CNC(=O)c1ccc(OC)c(-c2cc3c(n2C(C)C)[C@@H](c2ccc(Cl)cc2C)N(c2cccc(Cl)c2F)C3=O)c1 [Example 8, 3-[(R)-5-(3-Chloro-2-fluoro-phenyl)-6-(4-chloro-2-methyl-phenyl)-1-isopropyl-4-oxo-1,4,5,6-tetrahydro-pyrrolo[3,4-b]pyrrol-2-yl]-4-methoxy-N-methyl-benzamide] |
| 0.113 | COc1ccc(CO)cc1-c1cc2c(n1C(C)C)C(c1ccc(Cl)cc1)N(c1cc(Cl)ccc1C)C2=O (centres unmarked) [Example 11, 5-(5-Chloro-2-methyl-phenyl)-6-(4-chloro-phenyl)-2-(5-hydroxymethyl-2-methoxy-phenyl)-1-isopropyl-5,6-dihydro-1H-pyrrolo[3,4-b]pyrrol-4-one] |
| 0.176 | COc1ccncc1-c1cc2c(n1C(C)C)C(c1ccc(Cl)cc1)N(c1cc(Cl)ccc1C)C2=O (centres unmarked) [Example 13, 5-(5-Chloro-2-methyl-phenyl)-6-(4-chloro-phenyl)-1-isopropyl-2-(4-methoxy-pyridin-3-yl)-5,6-dihydro-1H-pyrrolo[3,4-b]pyrrol-4-one] |
| 0.068 | COc1ncc(-c2cc3c(n2C(C)C)C(c2ccc(Cl)cc2)N(c2cc(Cl)ccc2C)C3=O)c(OC)n1 (centres unmarked) [Example 14, 5-(5-Chloro-2-methyl-phenyl)-6-(4-chloro-phenyl)-2-(2,4-dimethoxy-pyrimidin-5-yl)-1-isopropyl-5,6-dihydro-1H-pyrrolo[3,4-b]pyrrol-4-one] |
| 0.133 | COc1ccc(C(=O)N(C)C)cc1-c1cc2c(n1C(C)C)C(c1ccc(Cl)cc1)N(c1cc(Cl)ccc1C)C2=O (centres unmarked) [Example 15, 3-[5-(5-Chloro-2-methyl-phenyl)-6-(4-chloro-phenyl)-1-isopropyl-4-oxo-1,4,5,6-tetrahydro-pyrrolo[3,4-b]pyrrol-2-yl]-4-methoxy-N,N-dimethyl-benzamide] |
| 0.308 | COc1ncncc1-c1cc2c(n1C(C)C)C(c1ccc(Cl)cc1)N(c1cc(Cl)ccc1C)C2=O (centres unmarked) [Example 16, 5-(5-Chloro-2-methyl-phenyl)-6-(4-chloro-phenyl)-1-isopropyl-2-(4-methoxy-pyrimidin-5-yl)-5,6-dihydro-1H-pyrrolo[3,4-b]pyrrol-4-one] |
| 0.281 | COc1ccc(C#N)cc1-c1cc2c(n1C(C)C)C(c1ccc(Cl)cc1)N(c1cc(Cl)ccc1C)C2=O (centres unmarked) [Example 17, 3-[5-(5-Chloro-2-methyl-phenyl)-6-(4-chloro-phenyl)-1-isopropyl-4-oxo-1,4,5,6-tetrahydro-pyrrolo[3,4-b]pyrrol-2-yl]-4-methoxy-benzonitrile] |
| 0.095 | CNC(=O)c1ccc(OC)c(-c2cc3c(n2C(C)C)[C@H](c2ccc(Cl)cc2)N(c2cc(Cl)ccc2C)C3=O)c1 [Example 18, 3-[(S)-5-(5-Chloro-2-methyl-phenyl)-6-(4-chloro-phenyl)-1-isopropyl-4-oxo-1,4,5,6-tetrahydro-pyrrolo[3,4-b]pyrrol-2-yl]-4-methoxy-N-methyl-benzamide] |
| 181 | CNC(=O)c1ccc(OC)c(-c2cc3c(n2C(C)C)[C@@H](c2ccc(Cl)cc2)N(c2cc(Cl)ccc2C)C3=O)c1 [Example 19, 3-[(R)-5-(5-Chloro-2-methyl-phenyl)-6-(4-chloro-phenyl)-1-isopropyl-4-oxo-1,4,5,6-tetrahydro-pyrrolo[3,4-b]pyrrol-2-yl]-4-methoxy-N-methyl-benzamide] |
| 0.075 | COc1ccc(C(=O)N(C)C)cc1-c1cc2c(n1C(C)C)[C@H](c1ccc(Cl)cc1)N(c1cc(Cl)ccc1C)C2=O [Example 20, 3-[(S)-5-(5-Chloro-2-methyl-phenyl)-6-(4-chloro-phenyl)-1-isopropyl-4-oxo-1,4,5,6-tetrahydro-pyrrolo[3,4-b]pyrrol-2-yl]-4-methoxy-N,N-dimethyl-benzamide] |
| 621 | COc1ccc(C(=O)N(C)C)cc1-c1cc2c(n1C(C)C)[C@@H](c1ccc(Cl)cc1)N(c1cc(Cl)ccc1C)C2=O [Example 21, 3-[(R)-5-(5-Chloro-2-methyl-phenyl)-6-(4-chloro-phenyl)-1-isopropyl-4-oxo-1,4,5,6-tetrahydro-pyrrolo[3,4-b]pyrrol-2-yl]-4-methoxy-N,N-dimethyl-benzamide] |
| 0.323 | COc1ccc(-c2cc3c(n2C(C)C)C(c2ccc(Cl)cc2)N(c2cc(Cl)ccc2C)C3=O)c(OC)n1 (centres unmarked) [Example 22, 5-(5-Chloro-2-methyl-phenyl)-6-(4-chloro-phenyl)-2-(2,6-dimethoxy-pyridin-3-yl)-1-isopropyl-5,6-dihydro-1H-pyrrolo[3,4-b]pyrrol-4-one] |
| 0.065 | COc1ncc(-c2cc3c(n2C(C)C)[C@H](c2ccc(Cl)cc2)N(c2cc(Cl)ccc2C)C3=O)c(OC)n1 [Example 23, (S)-5-(5-Chloro-2-methyl-phenyl)-6-(4-chloro-phenyl)-2-(2,4-dimethoxy-pyrimidin-5-yl)-1-isopropyl-5,6-dihydro-1H-pyrrolo[3,4-b]pyrrol-4-one] |
| 29.6 | COc1ncc(-c2cc3c(n2C(C)C)[C@@H](c2ccc(Cl)cc2)N(c2cc(Cl)ccc2C)C3=O)c(OC)n1 [Example 24, (R)-5-(5-Chloro-2-methyl-phenyl)-6-(4-chloro-phenyl)-2-(2,4-dimethoxy-pyrimidin-5-yl)-1-isopropyl-5,6-dihydro-1H-pyrrolo[3,4-b]pyrrol-4-one] |
| 0.263 | COc1nc(N)ncc1-c1cc2c(n1C(C)C)C(c1ccc(Cl)cc1)N(c1cc(Cl)ccc1C)C2=O (centres unmarked) [Example 25, 2-(2-Amino-4-methoxy-pyrimidin-5-yl)-5-(5-chloro-2-methyl-phenyl)-6-(4-chloro-phenyl)-1-isopropyl-5,6-dihydro-1H-pyrrolo[3,4-b]pyrrol-4-one] |
| 0.195 | CNc1ncc(-c2cc3c(n2C(C)C)C(c2ccc(Cl)cc2)N(c2cc(Cl)ccc2C)C3=O)c(OC)n1 (centres unmarked) [Example 26, 5-(5-Chloro-2-methyl-phenyl)-6-(4-chloro-phenyl)-1-isopropyl-2-(4-methoxy-2-methylamino-pyrimidin-5-yl)-5,6-dihydro-1H-pyrrolo[3,4-b]pyrrol-4-one] |
